Test results published in the supplement of paper PMC10627819.

Experiments:
Details in all cases: main component drawn
B. subtilis 168 [1] = assay: fitness (endpoint OD595 vs no drug) (fraction); higher = more growth
Procedure, shortened: (§1)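 With the first reading as background, OD595 was measured every 30 min for 14 h in 384-well plates kept at 37 °C and inoculated at OD595 0.01. TSB, LB Lennox or CY was the medium. Fitness is the optical density at the transition into stationary phase divided by the robust mean of no-drug control wells, with a cap of 1.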

S. aureus Newman [2] = assay: as above
Procedure, shortened: as §1

S. pneumoniae D39V [3] = assay: as above
Procedure, shortened: as §1

B. subtilis 168 [4] = assay: Bliss interaction score (quartile over a dose matrix) (fitness difference); higher = more antagonism (negative = synergy)
Procedure, shortened: (§2)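 Values were capped at 1 after dividing OD595 at stationary-phase entry by the plate's robust no-drug mean. This ratio is fitness, and single-drug fitness was inferred from the combination data. The Bliss score is observed minus product-expected fitness, given as quartiles over technical, biological and donor/recipient replicates.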

S. aureus DSM 20231 = assay: as above
Procedure, shortened: as §2

S. aureus Newman [5] = assay: as above
Procedure, shortened: as §2

S. pneumoniae D39V [6] = assay: as above
Procedure, shortened: as §2
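For Bliss interaction score (quartile over a dose matrix) in this document: first quartile when negative (synergy) and third quartile when positive (antagonism).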

CNC(C)C1CCC(N)C(OC2C(N)CC(N)C(OC3OCC(C)(O)C(NC)C3O)C2O)O1 (stereo not drawn) [Gentamicin] + CC1=C\[C@@H](O)CC(=O)Cc2nc(co2)C(=O)N2CCC=C2C(=O)O[C@H](C(C)C)[C@H](C)/C=C/C(=O)NC\C=C\1 [Virginiamycin M1]
fitness
Details	partner 0.0625 µg/mL	partner 0.125 µg/mL	partner 0.25 µg/mL	partner 0.5 µg/mL	partner 1 µg/mL	partner 2 µg/mL
B. subtilis 168 [1], first compound 0.0625 µg/mL	0.895	0.897	0.905	–	–	–
B. subtilis 168 [1], first compound 0.25 µg/mL	0.0328	0.0454	0.0523	–	–	–
S. aureus Newman [2], first compound 0.5 µg/mL	0.959	0.996	0.995	–	–	–
S. aureus Newman [2], first compound 1 µg/mL	≥ 1	≥ 1	≥ 1	–	–	–
S. aureus Newman [2], first compound 2 µg/mL	≥ 1	≥ 1	≥ 1	–	–	–
S. pneumoniae D39V [3], first compound 2 µg/mL	–	–	–	0.973	≥ 1	0.952
S. pneumoniae D39V [3], first compound 4 µg/mL	–	–	–	0.99	≥ 1	0.973
S. pneumoniae D39V [3], first compound 8 µg/mL	–	–	–	0.991	≥ 1	0.943

fitness, one replicate
Details	first compound 1 µg/mL	first compound 2 µg/mL	first compound 4 µg/mL	first compound 8 µg/mL
S. aureus Newman [2], partner 0.5 µg/mL	0.849	0.873	0.22	–
S. aureus Newman [2], partner 1 µg/mL	0.961	≥ 1	0.0961	–
S. aureus Newman [2], partner 2 µg/mL	0.849	0.792	0.0867	–
S. pneumoniae D39V [3], partner 0.15 µg/mL	–	≥ 1	≥ 1	≥ 1
S. pneumoniae D39V [3], partner 0.3 µg/mL	–	≥ 1	≥ 1	0.944

Details	Bliss interaction score
B. subtilis 168 [4]	-0.0977
S. aureus DSM 20231	0.094
S. aureus Newman [5]	-0.0365
S. pneumoniae D39V [6]	0.0786

CNC(C)C1CCC(N)C(OC2C(N)CC(N)C(OC3OCC(C)(O)C(NC)C3O)C2O)O1 (stereo not drawn) [Gentamicin] + CCN(CC)CCOC(=O)c1ccc(N)cc1 [Procaine]
fitness
Details	partner 85.5 µg/mL	partner 171 µg/mL	partner 342 µg/mL
B. subtilis 168 [1], first compound 0.0625 µg/mL	0.89	0.872	0.871
B. subtilis 168 [1], first compound 0.25 µg/mL	0.0903	0.0388	0.109
S. aureus Newman [2], first compound 0.5 µg/mL	–	0.975	0.925
S. aureus Newman [2], first compound 1 µg/mL	–	≥ 1	0.99
S. aureus Newman [2], first compound 2 µg/mL	–	≥ 1	0.944
S. pneumoniae D39V [3], first compound 2 µg/mL	≥ 1	0.981	0.968
S. pneumoniae D39V [3], first compound 4 µg/mL	≥ 1	0.977	0.944
S. pneumoniae D39V [3], first compound 8 µg/mL	0.938	0.965	0.935

fitness, S. aureus Newman [2], one replicate
Details	first compound 0.375 µg/mL	first compound 0.75 µg/mL	first compound 1.5 µg/mL
partner 85.5 µg/mL	≥ 1	≥ 1	≥ 1
partner 171 µg/mL	≥ 1	≥ 1	0.984
partner 342 µg/mL	≥ 1	≥ 1	≥ 1

Details	Bliss interaction score
B. subtilis 168 [4]	-0.101
S. aureus DSM 20231	0.0726
S. aureus Newman [5]	0.0373
S. pneumoniae D39V [6]	0.099

CNC(C)C1CCC(N)C(OC2C(N)CC(N)C(OC3OCC(C)(O)C(NC)C3O)C2O)O1 (stereo not drawn) [Gentamicin] + CN1C2=CC=CC=C2N=C3C1=CC=CC3=O [Pyocyanin]
Details	fitness
B. subtilis 168 [1], first compound 0.0625 µg/mL, partner 1.25 µg/mL	0.893
B. subtilis 168 [1], first compound 0.0625 µg/mL, partner 2.5 µg/mL	0.802
B. subtilis 168 [1], first compound 0.0625 µg/mL, partner 5 µg/mL	0.758
B. subtilis 168 [1], first compound 0.125 µg/mL, partner 5 µg/mL	0.559
B. subtilis 168 [1], first compound 0.25 µg/mL, partner 1.25 µg/mL	0.0424
B. subtilis 168 [1], first compound 0.25 µg/mL, partner 2.5 µg/mL	0.038
B. subtilis 168 [1], first compound 0.25 µg/mL, partner 5 µg/mL	0.0455
S. aureus Newman [2], first compound 0.5 µg/mL, partner 1.25 µg/mL	0.908
S. aureus Newman [2], first compound 0.5 µg/mL, partner 2.5 µg/mL	0.873
S. aureus Newman [2], first compound 1 µg/mL, partner 1.25 µg/mL	0.942
S. aureus Newman [2], first compound 1 µg/mL, partner 2.5 µg/mL	0.909
S. aureus Newman [2], first compound 1 µg/mL, partner 5 µg/mL	0.645
S. aureus Newman [2], first compound 2 µg/mL, partner 1.25 µg/mL	0.917
S. aureus Newman [2], first compound 2 µg/mL, partner 2.5 µg/mL	0.903
S. aureus Newman [2], first compound 2 µg/mL, partner 5 µg/mL	0.545
S. pneumoniae D39V [3], first compound 2 µg/mL, partner 0.325 µg/mL	0.962
S. pneumoniae D39V [3], first compound 2 µg/mL, partner 0.65 µg/mL	0.964
S. pneumoniae D39V [3], first compound 2 µg/mL, partner 1.3 µg/mL	0.6
S. pneumoniae D39V [3], first compound 4 µg/mL, partner 0.325 µg/mL	≥ 1
S. pneumoniae D39V [3], first compound 4 µg/mL, partner 0.65 µg/mL	0.959
S. pneumoniae D39V [3], first compound 4 µg/mL, partner 1.3 µg/mL	0.599
S. pneumoniae D39V [3], first compound 8 µg/mL, partner 0.325 µg/mL	0.94
S. pneumoniae D39V [3], first compound 8 µg/mL, partner 0.65 µg/mL	0.865
S. pneumoniae D39V [3], first compound 8 µg/mL, partner 1.3 µg/mL	0.531

fitness, S. aureus Newman [2], one replicate
Details	first compound 0.375 µg/mL	first compound 0.75 µg/mL	first compound 1.5 µg/mL
partner 1.25 µg/mL	0.76	0.775	0.774
partner 2.5 µg/mL	0.791	0.776	0.783
partner 5 µg/mL	0.439	0.463	0.421

Details	Bliss interaction score
B. subtilis 168 [4]	0.129
S. aureus DSM 20231	0.0622
S. aureus Newman [5]	0.111
S. pneumoniae D39V [6]	-0.113

CNC(C)C1CCC(N)C(OC2C(N)CC(N)C(OC3OCC(C)(O)C(NC)C3O)C2O)O1 (stereo not drawn) [Gentamicin] + CN(C)c1cc(NC(=O)CNC(C)(C)C)c(O)c2c1C[C@H]1C[C@H]3[C@H](N(C)C)C(O)=C(C(N)=O)C(=O)[C@@]3(O)C(O)=C1C2=O [Tigecycline]
Details	fitness
B. subtilis 168 [1], first compound 0.0625 µg/mL, partner 0.039 µg/mL	0.967
B. subtilis 168 [1], first compound 0.0625 µg/mL, partner 0.078 µg/mL	0.908
B. subtilis 168 [1], first compound 0.0625 µg/mL, partner 0.156 µg/mL	0.907
B. subtilis 168 [1], first compound 0.25 µg/mL, partner 0.039 µg/mL	0.186
B. subtilis 168 [1], first compound 0.25 µg/mL, partner 0.078 µg/mL	0.0549
B. subtilis 168 [1], first compound 0.25 µg/mL, partner 0.156 µg/mL	0.0589
S. aureus Newman [2], first compound 0.5 µg/mL, partner 0.039 µg/mL	0.974
S. aureus Newman [2], first compound 0.5 µg/mL, partner 0.078 µg/mL	0.949
S. aureus Newman [2], first compound 0.5 µg/mL, partner 0.156 µg/mL	0.935
S. aureus Newman [2], first compound 1 µg/mL, partner 0.039 µg/mL	0.988
S. aureus Newman [2], first compound 1 µg/mL, partner 0.078 µg/mL	≥ 1
S. aureus Newman [2], first compound 1 µg/mL, partner 0.156 µg/mL	≥ 1
S. aureus Newman [2], first compound 2 µg/mL, partner 0.039 µg/mL	≥ 1
S. aureus Newman [2], first compound 2 µg/mL, partner 0.078 µg/mL	≥ 1
S. aureus Newman [2], first compound 2 µg/mL, partner 0.156 µg/mL	≥ 1
S. pneumoniae D39V [3], first compound 2 µg/mL, partner 0.325 µg/mL	0.94
S. pneumoniae D39V [3], first compound 2 µg/mL, partner 0.65 µg/mL	0.9
S. pneumoniae D39V [3], first compound 2 µg/mL, partner 1.3 µg/mL	0.909
S. pneumoniae D39V [3], first compound 2 µg/mL, partner 2.6 µg/mL	0.897
S. pneumoniae D39V [3], first compound 4 µg/mL, partner 0.325 µg/mL	0.943
S. pneumoniae D39V [3], first compound 4 µg/mL, partner 0.65 µg/mL	0.945
S. pneumoniae D39V [3], first compound 4 µg/mL, partner 1.3 µg/mL	0.96
S. pneumoniae D39V [3], first compound 4 µg/mL, partner 2.6 µg/mL	0.903
S. pneumoniae D39V [3], first compound 8 µg/mL, partner 0.325 µg/mL	0.971
S. pneumoniae D39V [3], first compound 8 µg/mL, partner 0.65 µg/mL	0.911
S. pneumoniae D39V [3], first compound 8 µg/mL, partner 1.3 µg/mL	0.977
S. pneumoniae D39V [3], first compound 8 µg/mL, partner 2.6 µg/mL	0.858

fitness, one replicate
Details	first compound 0.0625 µg/mL	first compound 0.125 µg/mL	first compound 0.25 µg/mL	first compound 0.375 µg/mL	first compound 0.75 µg/mL	first compound 1.5 µg/mL
B. subtilis 168 [1], partner 0.125 µg/mL	≥ 1	≥ 1	0.0664	–	–	–
B. subtilis 168 [1], partner 0.25 µg/mL	0.91	0.891	0.315	–	–	–
B. subtilis 168 [1], partner 0.5 µg/mL	0.965	0.879	0.21	–	–	–
S. aureus Newman [2], partner 0.039 µg/mL	–	–	–	0.935	0.933	0.953
S. aureus Newman [2], partner 0.078 µg/mL	–	–	–	0.97	≥ 1	0.966
S. aureus Newman [2], partner 0.156 µg/mL	–	–	–	≥ 1	0.969	0.964

Details	Bliss interaction score
B. subtilis 168 [4]	0.122
S. aureus DSM 20231	-0.0407
S. aureus Newman [5]	-0.0289
S. pneumoniae D39V [6]	0.0631
